# According to patent US6887873B2, “Triazine derivatives and their application as antitelomerase agents” (Aventis Pharma S.A., priority 2001, dated 2005):
# Several values for one entry are separate records, joined by “and”; a condition that tells them apart may be missing. Equal entries are not always repeated.
# Columns and labels:
# [1] = test system: G-quadruplex of oligonucleotide GGGTTAGGGTTAGGGTTAGGG (3.5 repeats of the human telomereic motif); assay: G-quadruplex stabilizing activity, fluorescence Tm (FAM+DABCYL oligonucleotide); format: binding
# From the text: The G-quadruplex stabilizing activity may be determined by a method using the formation of a complex with fluorescein of which the experimental protocol is described below.
# All the nucleotides, modified or otherwise, were synthesized by Eurogentec SA, Seraing, Belgium. The oligonucleotide FAM+DABCYL carries the catalogue reference OL-0371-0802. It has the sequence: […] corresponding to 3.5 repeats of the human telomereic motif (strand rich in G). The fluorescein is attached to the 5′ end, the DABCYL to the 3′ end, by the chemical arms described by Eurogentec. The concentration of the samples is checked by spectrophotometry, recording the absorbance spectrum between 220 and 700 nm and using the molar extinction coefficient provided by the supplier.
# All the experiments were carried out in a 10 mM sodium cacodylate buffer pH 7.6 containing 0.1 M lithium chloride (or sodium chloride). The absence of fluorescent contamination in the buffer was checked beforehand. The fluorescent oligonucleotide is added at the final concentration of 0.2 μM.
# All the measurements of fluorescence were carried out on a Spex Fluorolog DM1B apparatus, using an excitation line width of 1.8 nm and an emission line width of 4.5 nm. The samples are placed in a microquartz cuvette of 0.2×1 cm. The temperature of the sample is controlled by an external water bath. The oligonucleotide alone was analysed at 20, 30, 40, 50, 60, 70 and 80° C. The emission spectra are recorded using an excitation wavelength of 470 nm. The excitation spectra are recorded using either 515 nm or 588 nm as emission wavelength. The spectra are corrected for the response of the instrument by reference curves. A high extinction (80-90%) of the fluorescence of fluorescein at room temperature is observed, in agreement with an intramolecular folding of the oligonucleotide at 20° C. in the form of a G-quadruplex, which induces juxtaposition of its 5′ and 3′ ends which are respectively linked to fluorescein and to DABCYL. This juxtaposition causes an already-described phenomenon of extinction of fluorescence which is used for “molecular beacons”.
# An oligonucleotide stock solution at the strand concentration of 0.2 μM in 0.1 M LiCl, 10 mM cacodylate buffer, pH 7.6, is prepared beforehand, heated briefly at 90° C. and slowly cooled to 20° C., and then distributed in aliquots of 600 μl in the fluorescence cuvettes. 3 μl of water (for the control) or 3 μl of test product (stock at 200 μM, final concentration 1 μM) are then added and mixed. The samples are then allowed to incubate for at least 1 hour at 20° C. before each measurement. The use of longer incubation times (up to 24 hours) has no influence on the result obtained.
# Each experiment allows the measurement of only one sample. The latter is first incubated at an initial temperature of 20° C., heated to 80° C. over 38 minutes, left for 5 minutes at 80° C. and then cooled to 20° C. over 62 minutes. During this time, the fluorescence is measured simultaneously at two emission wavelengths (515 nm and 588 nm) using 470 nm as excitation wavelength. A measurement is carried out every 30 seconds. The temperature of the water bath is recorded in parallel, and the fluorescence profile as a function of the temperature is reconstituted from these values. The fluorescence profiles are then normalized between 20° C. and 80° C., and the temperature for which the intensity of emission at 515 nm is the mean of those at high and low temperature is called Tm. Under these conditions, the Tm of the reference sample without addition of product is 44° C. in a lithium chloride buffer. This temperature is increased to more than 55° C. in a sodium chloride buffer. The addition of a G-quadruplex-stabilizing compound induces an increase in the Tm. This increase is judged to be significant if it is greater than 3°.
# [2] = test system: human telomerease (HL60 cell extract); assay: Antitelomerease activity: extension of oligonucleotide TS followed by PCR amplification, with HL60 extract; format: biochemical; conditions: read-out: TRAP IC50
# Description: The antitelomerease biological activity is determined by the following experimental protocol:
# The leukaemia line HL60 is obtained from ATCC (American Type Culture Collection, Rockville, USA). The cells are cultured in suspension in RPMI 1640 medium containing L-glutamine at 2 mM, penicillin 200 U/ml, streptomycin 200 μg/ml, gentamycin 50 μg/ml and supplemented with 10% heat-inactivated foetal calf serum.
# An aliquot of 10^5 cells is centrifuged at 3000×G and the supernatant discarded. The cell pellet is resuspended by several successive pipettings in 200 μl of lysis buffer containing 0.5% CHAPS, 10 mM Tris-HCl, pH 7.5, 1 mM MgCl2, 1 mM EGTA, 5 mM β-mercaptoethanol, 0.1 mM PMSF and 10% glycerol and is stored in ice for 30 minutes. The lysate is centrifuged at 160,000×G for 20 minutes at 4° C. and 160 μl of supernatant are recovered. The proteins in the extract are assayed by the Bradford method. The extract is stored at −80° C.
# The inhibition of the telomerease activity is determined by a protocol for extension of the oligonucleotide TS (^5′AATCGTTCGAGCAGAGTT^3′), in the presence of a cellular extract enriched in telomerease activity and compounds which are added at various concentrations (10, 1, 0.1 and 0.01 μM). The extension reaction is followed by a PCR amplification of the extension products with the aid of the oligonucleotides TS and CXext (^5′[…]^3′).
# The reaction medium is prepared based on the following composition:
# The oligonucleotides are obtained from Eurogentec (Belgium) and are stored at −20° C. at a stock concentration of 1 mg/ml in distilled water.
# The reaction samples are assembled in 0.2 ml PCR tubes and one drop of paraffin oil is deposited on each of the reactions of the experiment before closing the tubes.
# The reaction samples are then incubated in a Cetus 4800-type PCR apparatus under the following temperature conditions: • 15 minutes at 30° C., • 1 minute at 90° C., • followed by 30 cycles of, • 30 seconds at 94° C., • 30 seconds at 50° C., • and 1 minute 30 seconds at 72° C., • followed by a final cycle of 2 minutes at 72° C.
# For each of the samples, an aliquot of 10 μl is pipetted under the oil layer and mixed with 5 μl of a loading buffer containing:
# The samples are then analysed by electrophoresis on 12% acrylamide gel in a 1×TBE buffer for 1 hour at a voltage of 200 volts, with the aid of a Novex electrophoresis system.
# The acrylamide gels are then dried on a sheet of Whatmann 3 mm paper at 80° C. for 1 hour.
# The analysis and the quantification of the reaction products are carried out with the aid of an InstantImager apparatus (Pacard).
# For each compound concentration tested, the results are expressed as percentage inhibition of the reaction and calculated from the untreated enzymatic control and from the enzyme-free sample (blank) according to the following formula: (compound value−blank value/enzymatic control value−blank value)×100.
# The concentration of compound inducing a 50% inhibition of the telomerease reaction (IC50) is determined with the aid of a semilogarithmic graphical representation of the inhibition values obtained as a function of each of the compound concentrations tested.
# A compound is considered to be active as an antitelomerease agent when the quantity inhibiting 50% of the telomerease reaction is in particular less than 5 μM.
SMILES,G4 delta Tm [1] [°C],IC50 [2]
COC(C)CNc1nc(Nc2ccc3nc(C)cc(N(C)C)c3c2)nc(Nc2ccc3nc(C)cc(N(C)C)c3c2)n1 (centres unmarked) [Example 165],6.5,1400 nM
Cc1cc(N)c2cc(Nc3nc(Nc4ccc5nc(C)cc(N)c5c4)nc(N4CCCN(C)CC4)n3)ccc2n1 [Example 42],15.5,50 nM
CCN(CC)CCOc1nc(Nc2ccc3nc(C)cc(N)c3c2)nc(Nc2ccc3nc(C)cc(N)c3c2)n1 [Example 106],14.5,280 nM
Cc1cc(N)c2cc(Nc3nc(Nc4ccc5nc(C)cc(N)c5c4)nc(Oc4ncccn4)n3)ccc2n1 [Example 111],23.5,480 nM
Cc1cc(N)c2cc(Nc3nc(NCCN(C)C)nc(Nc4ccccc4Cl)n3)ccc2n1 [Example 5],2.0,2700 nM
"Cc1cc(N(C)C)c2cc(Nc3nc(Nc4ccc5nc(C)cc(N(C)C)c5c4)nc(Sc4ccc5ccccc5n4)n3)ccc2n1 [Example 133, 2,4-bis(4-dimethylamino-2-methylquinolin-6-yl)amino-6-(quinolin-2-yl)thio-[1,3,5]triazine]",25,180 nM
Cc1cc(N(C)C)c2cc(Nc3nc(NCC4CCCN4)nc(Nc4ccc5nc(C)cc(N(C)C)c5c4)n3)ccc2n1 (centres unmarked) [Example 22],2.7,340 nM
Cc1cc(N)c2cc(Nc3nc(NCCNC(C)C)nc(Nc4ccc5nc(C)cc(N)c5c4)n3)ccc2n1 [Example 91],7,370 nM
Cc1cc(N)c2cc(Nc3nc(Nc4ccc5nc(C)cc(N)c5c4)nc(NC4CCN(C)CC4)n3)ccc2n1 [Example 13],7.2,260 nM
CCOc1cc(Nc2nc(Nc3ccc4nc(C)cc(N)c4c3)nc(Nc3ccc4nc(C)cc(N)c4c3)n2)c2ncccc2c1 [Example 102],,570 nM
Cc1cc(N)c2cc(Nc3nc(NCCN4CCCCC4)nc(Nc4ccc5nc(C)cc(N)c5c4)n3)ccc2n1 [Example 90],11,370 nM
CCN(CC)CCN(CCN(CC)CC)c1nc(Nc2ccc3nc(C)cc(N)c3c2)nc(Nc2ccc3nc(C)cc(N)c3c2)n1 [Example 40],19,230 nM
Cc1cc(N)c2cc(Nc3nc(Nc4ccc5nc(C)cc(N)c5c4)nc(Oc4cccc5ccccc45)n3)ccc2n1 [Example 107],4.5,370 nM
Cc1cc(N)c2cc(Nc3nc(Nc4ccc5nc(C)cc(N)c5c4)nc(Sc4ncccn4)n3)ccc2n1 [Example 121],,400 nM and 360 nM
Cc1cc(N)c2cc(Nc3nc(NCCCN(C)C)nc(Nc4ccccc4Cl)n3)ccc2n1 [Example 6],,3500 nM
Cc1cc(N)c2cc(Nc3nc(Nc4ccc5nc(C)cc(N)c5c4)nc(Nc4nccc5ccccc45)n3)ccc2n1 [Example 87],,1500 nM

SMILES,G4 delta Tm [1] [°C],IC50 [2]
Cc1cc(N)c2cc(Nc3nc(Nc4ccc5ncccc5c4)nc(Nc4ccc5nc(C)cc(N)c5c4)n3)ccc2n1 [Example 96],,480 nM
Cc1cc(N)c2cc(Nc3nc(NCCN4CCOCC4)nc(Nc4ccc5nc(C)cc(N)c5c4)n3)ccc2n1 [Example 80],,1200 nM
Cc1cc(N)c2cc(Nc3nc(Nc4ccc5nc(C)cc(N)c5c4)nc(Sc4ccc5ccccc5c4)n3)ccc2n1 [Example 116],,1800 nM
Cc1cc(N)c2cc(Nc3nc(NCc4cccc5cnccc45)nc(Nc4ccc5nc(C)cc(N)c5c4)n3)ccc2n1 [Example 81],,1400 nM
Cc1cc(N)c2cc(Nc3nc(Nc4ccc5nc(C)cc(N)c5c4)nc(Nc4cccc5ncccc45)n3)ccc2n1 [Example 95],,930 nM
Cc1cc(N)c2cc(Nc3nc(Nc4ccc5nc(C)cc(N)c5c4)nc(Nc4ncccn4)n3)ccc2n1 [Example 94],,940 nM
Cc1cc(N)c2cc(Nc3nc(Nc4ccc5nc(C)cc(N)c5c4)nc(Nc4ccc5c6c(cccc46)CC5)n3)ccc2n1 [Example 99],,600 nM
"Cc1cc(N)c2cc(Nc3nc(Nc4ccc5nc(C)cc(N)c5c4)nc(Oc4ccccc4)n3)ccc2n1 [Example 29, 2,4-bis(4-amino-2-methylquinolin-6-yl)amino-6-phenoxy-[1,3,5]triazine]",,320 nM and 470 nM
Cc1cc2c(Nc3nc(Nc4ccc5nc(C)cc(N)c5c4)nc(Nc4ccc5nc(C)cc(N)c5c4)n3)cccc2cn1 [Example 101],,810 nM
COc1cccc(Nc2nc(Nc3ccc4nc(C)cc(N)c4c3)nc(Nc3ccc4nc(C)cc(N)c4c3)n2)c1 [Example 82],,1600 nM
Cc1cc(N)c2cc(Nc3nc(NCc4cccc5ccccc45)nc(Nc4ccc5nc(C)cc(N)c5c4)n3)ccc2n1 [Example 78],,1500 nM
Cc1cc(N)c2cc(Nc3nc(Nc4ccc5nc(C)cc(N)c5c4)nc(Nc4cccc5nn[nH]c45)n3)ccc2n1 [Example 61],,360 nM
Cc1cc(N)c2cc(Nc3nc(Nc4ccc5nc(C)cc(N)c5c4)nc(Nc4cccc5cccnc45)n3)ccc2n1 [Example 97],,690 nM
Cc1cc(N)c2cc(Nc3nc(Nc4ccc5ccccc5c4)nc(Nc4ccc5nc(C)cc(N)c5c4)n3)ccc2n1 [Example 79],,3600 nM
Cc1cc(N)c2cc(Nc3nc(Nc4ccc5nc(C)cc(N)c5c4)nc(Nc4cc5ccccc5cn4)n3)ccc2n1 [Example 100],,450 nM
COCCNc1nc(Nc2ccc3nc(C)cc(N)c3c2)nc(Nc2ccc3nc(C)cc(N)c3c2)n1 [Example 84],,2200 nM
